This note sets out measurements from patent US20080103198A1, “METHODS FOR TREATMENT OF COCHLEAR AND VESTIBULAR DISORDERS” (priority 2006, published 2008).

Assay [1] concerns PC12 cells. The assay can be described thus: PC12 cell serum withdrawal model (MTS assay). Format: cell-based. Particulars: control cells = 100%. The text has this:
Serum withdrawal is a cytotoxic environmental challenge that results in cell death in cultured cell lines as well as in primary cells of various tissue origins, including nerve cells. In particular, pheochromocytoma (PC) 12 cells have been widely employed as an in vitro neuronal cell model for a wide variety of neurodegenerative and cell death related disorders (Muriel, et al, Mitochondrial free calcium levels (Rhod-2 fluorescence) and ultrastructural alterations in neuronally differentiated PC12 cells during ceramide-dependent cell death, J. Comp. Neurol., 2000, 426(2), 297-315; Dermitzaki, et al, Opioids transiently prevent activation of apoptotic mechanisms following short periods of serum withdrawal, J. Neurochem., 2000, 74(3), 960-969; Carlile, et al, Reduced apoptosis after nerve growth factor and serum withdrawal: conversion of tetrameric glyceraldehyde-3-phosphate dehydrogenase to a dimer, Mol. Pharmacol., 2000, 57(1), 2-12).
PC12 cells were cultured in sterile media (RPMI 1640) supplemented with 10% heat-inactivated horse serum and 5% fetal bovine serum (FBS). The culture medium also contained Penicillin-Streptomycin-Neomycin antibiotic (50µg, 50µg, 100µg, respectively). Medium was exchanged every other day and the cells were passed in log phase near confluence.
The control cells were cultured in regular media without any treatment. An enantiomer of Formula 7 or Formula 8 (10µM) was mixed well in the medium and then applied to the cells. For the 2 day assay, an enantiomer of Formula 7 or Formula 8 (10µM) was only applied to the cells once at the time of serum withdrawal. For the 7 day assay, an enantiomer of Formula 7 or Formula 8 (10. mu.M) was applied to the cells at the time of serum withdrawal and every 48 hr thereafter when cells were changed with fresh new serum-free medium. In the serum withdrawal group, the cells were cultured in serum-free medium with no additional enantiomer of Formula 7 or Formula 8. Cell survival was determined by the 3-(4,5-dimethylthiazol-2-yl)-5-(3-carboxy-methoxyphenyl)-2-(4-sulfophenyl)-2H-tetrazolium inner salt (MTS) assay at 2 or 7 days after serum withdrawal.
At the end of the experiment, cells were washed with fresh medium and incubated with MTS solution in a humidified 37° C. with 5% CO2 incubator for 1.5 hr. After the incubation period, the cells were immediately analyzed using a Softmax program (Molecular Devices). […] The assay is based on the cellular conversion of the tetrazolium salt, MTS, into a formazan that is soluble in tissue culture medium and measured directly at 490 nm in 96-well assay plates. The absorbance is directly proportional to the number of living cells in culture. The arbitrary absorbance reading in control cells is expressed as 100% survival rate.
Background: Tetrazolium assays rely on reduction of a dye to a coloured formazan, in cell work by metabolically active cells.

Assay [2] concerns transient cerebral ischemia (MCAO). The assay can be described thus: Transient cerebral ischemia middle cerebral artery occlusion (MCAO) rat model. The following applies: N=12. It counts as in vivo. The protocol:
The enantiomer of Formula 7 was investigated in the transient cerebral ischemia middle cerebral artery occlusion (MCAO) rat model (as described in Nagasawa H. and Kogure K., Stroke, 1989, 20, 1037; and, Zea Longa E., Weinstein P. R., Carlson S, and Cummins R., Stroke, 1989, 20, 84) using male Wistar rats at 10 and 100 mg/kg (i.v.). MK 801 (Dizocilpine maleate; CAS Registry number 77086-22-7, a commercially available neuroprotectant compound) was used as a positive control (3 mg/kg, i.p.).
Rats (n=12) were randomly allocated to one of four experimental groups and were anesthetized. Blood flow from the internal carotid artery, anterior cerebral artery and posterior cerebral artery into the middle cerebral artery was blocked by this procedure. One hour after blockage, animals were treated over a 1 hour period with vehicle (administered i.v. over the one hour period), control (administered as a single i.p. dose at the start of the one hour period) and two doses of the enantiomer of Formula 7 (administered i.v. over the one hour period). Two hours after blockage, reperfusion was performed.
The animals were sacrificed and […] coronal sections of each brain were prepared. One in every forty sections (i.e. every […]) from the front to the occipital cortex was used to quantify the extent of the cerebral lesion. Slides were prepared using sections stained (according to the Nissl procedure) with cresyl violet and were examined under a light microscope.
Regional ischemic surface areas in the coronal sections of individual rats were determined according to the presence of cells with morphological changes. The areas of neuronal injury or infarction were measured and then added. The cortex and striatum volume were calculated for each animal (total ischemic surface area×0.8 mm (thickness)).
The mean volumes (.+−.S.E.M.) for each animal randomly assigned to the four experimental groups were compared using one-way ANOVA (one way ANOVA is a statistical method which compares 3 or more unmatched groups) followed by Dunnett's t-test (both methods incorporated in Statview 512+software, BarinPower, Calabasas, Calif., USA).

Setting [3] is: Formula 7 10 mg/kg i.v. over 1 hour.
[4] abbreviates: Formula 7 100 mg/kg i.v. over 1 hour.

For the molecule `NC(=O)OC[C@@H](O)c1ccccc1Cl` [test compound], the “2 Day Survival Rate” value in assay [1] (10 µM applied once at serum withdrawal) is 69.4 ± 1.7^1%. Further, the “7 Day Survival Rate” value in assay [1] (10 µM at serum withdrawal and every 48 hr) is on record as 79.9 ± 4.0^2%. For the same molecule, in assay [2] (setting [3]), the “Mean Infarct Volume ± S.E.M., Cortex Volume” value is reported as 201.0 ± 23.9 ^ mm^3; the “Mean Infarct Volume ± S.E.M., Striatum” value was 75.9 ± 2.6^ mm^3; the “Mean Infarct Volume ± S.E.M., Total” value is 276.9 ± 25.4^ mm^3. Moreover, in assay [2] (setting [4]), the “Mean Infarct Volume ± S.E.M., Cortex Volume” value is given as 98.8 ± 29.5^1 mm^3; the “Mean Infarct Volume ± S.E.M., Striatum” value is reported as 63.0 ± 5.9^2 mm^3; the “Mean Infarct Volume ± S.E.M., Total” value is recorded as 161.9 ± 34.3^1 mm^3.
